Results reported in patent US8207230B2, “Functional role for cannabinoids in autonomic stability during sleep” (The Board of Trustees of the University of Illinois, priority 2001, dated 2012).

Experiments:
CB2 receptors = CB2 receptors (Homo sapiens, UniProt P34972); conditions: cited from earlier work
Sprague-Dawley rats [1] = assay: Sleep/wake architecture by EEG/EMG recording; assay type: in vivo; conditions: rat, intraperitoneal; for sleep/wake architecture: 6 hour recording
Procedure: Acclimatized animals were anesthetized for the implantation of cortical electrodes for electroencephalogram (EEG) recording and neck muscle electrodes for electromyogram (EMG) recording using a mixture of ketamine (Vedco, Inc., St. Joseph, Mo.; 80 mg/ml) and xylazine (Vedco, Inc., St. Joseph, Mo.; 5 mg/ml; 4:1, volume/volume) at a volume of 1 ml/kg body weight. The surface of the skull was exposed surgically and cleaned with a 20% solution of hydrogen peroxide followed by, a solution of 95% isopropyl alcohol. Next, a dental preparation of sodium fluoride: (Flura-GEL®, Saslow Dental, Mt. Prospect, Ill.) was applied to harden the skull above the parietal cortex and allowed to remain in place for 5 minutes. The fluoride mixture was then removed from the skull above the parietal cortex. The EEG electrodes consisting of four stainless steel machine screws, having leads attached thereto, were threaded into the skull to rest on the dura over the parietal cortex. A thin layer of Justi® resin cement (Saslow Dental, Mt. Prospect, Ill.) was applied to cover the screw heads (of screws implanted in the skull) and surrounding skull to further promote the adhesion of the implant. EMG electrodes consisting of two ball-shaped wires were inserted into the bilateral neck musculature. All leads (i.e., EEG and EMG leads) were soldered to a miniature connector (39F1401, Newark Electronics, Chicago, Ill.). Lastly, the entire assembly was fixed to the skull with dental cement.
(§1) Δ^9THC (dronabinol, Roxane Laboratories, Columbus, Ohio) was dissolved in DMSO: oleamide (ICN Biomedicals, Aurora, Ohio) was suspended in peanut oil with sonication for 20 minutes; and serotonin was dissolved in saline. The study was a fully nested, repeated measures crossover design, such that each animal received each of 12 intraperitoneal injections (1 ml/kg) exactly one time: vehicle alone (saline, DMSO, or peanut oil); Δ^9THC alone (0.1, 1.0, or 10.0 mg/kg); oleamide alone (0.1, 1.0, or 10.0 mg/kg); serotonin alone (0.79 mg/kg); or combination injection (0.1 mg/kg Δ^9THC followed, after 15 minutes, by 0.79 mg/kg serotonin or 0.1 mg/kg oleamide followed by 0.79 mg/kg serotonin). Each injection was made 15 minutes prior to polygraphic recording for 6 hours (10:00-16:00). Successive recordings for an individual animal were separated by at least three days and the treatments were given in random order.
Sleep and waking states were assessed using the biparietal EEG and nuchal EMG signals on 10-second epochs as described by Bennington et al. [Sleep 17:28-36 (1994)]. […] Sleep efficiency was measured as the percentage of total recorded epochs staged as NREM or REM sleep.

Sprague-Dawley rats [2] = assay: Respiratory rate, minute ventilation and tidal volume by plethysmography; assay type: in vivo; conditions: rat; for average respiratory rate (RR) / respiratory minute ventilation: intraperitoneal; for respiratory minute ventilation: compared with the effects on RR
Procedure: as §1
(§2) Respiration was recorded by placing each animal, unrestrained, inside a single chamber plethysmograph (PLYUN1R/U; Buxco Electronics, Sharon, Conn.; dimension 6 in.×10 in.×6 in.) ventilated with a bias flow of fresh room air at a rate of 2 L/min. A cable plugged onto the animal's connector and passed through a sealed port was used to carry the bioelectrical activity from the head implant.
The bias flow of room air (2 l/min) was more than one order of magnitude greater than the alveolar ventilation of the rat, ensuring that no rebreathing occurred. Thermal fluctuations associated with tidal respiration induced changes in plethysmograph pressure proportional to tidal volume. Plethysmograph pressure was monitored using a Validyne DP45-14 differential pressure transducer (±2 cm H20). Prior to each experimental study, the plethysmograph was calibrated for tidal volume using the method described by Epstein et al. (J. Appl. Physiol., 49, 1107 (1980)). An adaptive threshold algorithm (Datawave Systems, Longmont, Colo.) was used to measure the duration and tidal amplitude of each breath in each recording. From these values, instantaneous respiratory rate (RR) and minute ventilation (MV) were computed on a breath by breath basis. Respiratory variability was assessed by calculating the standard deviations of RR and MV for each 10 second recording epoch. These standard deviations were then averaged separately for each sleep/wake state.
(§3) An accepted physiological animal model [rat; Monti, et al., Pharamcol. Biochem. Behav., 51:125-131; (1995)] of sleep apnea was used to assess the effects of a cannabinoid receptor agonist activity and/or agents having cannabimimetic activity. More specifically, sleep apneas, defined as cessation of respiratory effort for at least 2.5 seconds, were scored for each recording session and were associated with the stage in which they occurred: NREM or REM sleep. The duration requirement of 2.5 seconds represented at least 2 “missed” breaths, which is therefore analogous to a 10 second apnea duration requirement in humans, which also reflects 2-3 missed breaths. The events detected represent central apneas because decreased ventilation associated with obstructed or occluded airways would generate an increased plethysmographic signal, rather than a pause. An apnea index (AI), defined as apneas per hour in a stage was separately determined for NREM and REM sleep. The effects of sleep stage (NREM vs. REM) and injection (control vs. test compounds) were tested using ANOVA with repeated measures. Multiple comparisons were controlled using Fisher's protected least significant difference (PLSD). In addition, the timing and volume of each breath were scored by automatic analysis (Experimenters' Workbench; Datawave Technologies, Longmont, Colo.). For each animal the mean respiratory rate (RR) and minute ventilation (MV) was computed for W throughout the 6 hour control recording and used as a baseline to normalize respiration during sleep and during test compound administration in that animal. […]

Sprague-Dawley rats [3] = assay: Serotonin-induced apnea during REM sleep; assay type: in vivo; conditions: rat; for serotonin-induced increase in REM sleep apnea: pretreatment with 0.1 mg/kg intraperitoneal 15 minutes before 0.79 mg/kg serotonin; for frequency of apnea during REM sleep: intraperitoneal, serotonin 0.79 mg/kg alone vs saline
Procedure: as §1, §2
An accepted physiological animal model [rat; Monti, et al., Pharamcol. Biochem. Behav., 51:125-131; (1995)] of sleep apnea was used to assess the effects of a cannabinoid receptor agonist activity and/or agents having cannabimimetic activity. More specifically, sleep apneas, defined as cessation of respiratory effort for at least 2.5 seconds, were scored for each recording session and were associated with the stage in which they occurred: NREM or REM sleep. The duration requirement of 2.5 seconds represented at least 2 “missed” breaths, which is therefore analogous to a 10 second apnea duration requirement in humans, which also reflects 2-3 missed breaths. The events detected represent central apneas because decreased ventilation associated with obstructed or occluded airways would generate an increased plethysmographic signal, rather than a pause. An apnea index (AI), defined as apneas per hour in a stage was separately determined for NREM and REM sleep. The effects of sleep stage (NREM vs. REM) and injection (control vs. test compounds) were tested using ANOVA with repeated measures. Multiple comparisons were controlled using Fisher's protected least significant difference (PLSD). In addition, the timing and volume of each breath were scored by automatic analysis (Experimenters' Workbench; Datawave Technologies, Longmont, Colo.). […]

Sprague-Dawley rats [4] = assay: Spontaneous sleep apnea (apnea index) by plethysmography in freely moving rats; assay type: in vivo; conditions: rat; for breaths with long duration in typical 6-hour recordings (FIG. 1A): vs vehicle recording; for time dependence of apnea suppression during the 6-hour recording period: NREM and REM sleep; for degree of apnea suppression, Δ^9THC compared with oleamide: highest dose (10.0 mg/kg)
Procedure: These recoding and data analysis methods have been described in detail elsewhere [Carley and Radulovacki (Chest., 115: 1397 (1999)].
Adult, male Sprague-Dawley rats (Sasco-King, Wilmington, Mass.; 11 per test group; 300 g) were maintained on a 12-hour light (08:00-20:00 hour)/12-hour dark (20:00-08:00 hour) cycle for one week, housed in individual cages and given ad libitum access to food and water. Following the one week of acclimatization, animals were subjected to the following surgical procedures.
as §1, §2
Sleep and waking states were assessed using the biparietal EEG and nuchal EMG signals on 10-second epochs as described by Bennington et al. [Sleep 17:28-36 (1994)]. This software discriminated wakefulness (W) as a high frequency low amplitude EEG with a concomitant high EMG tone, NREM sleep by increased spindle and […] activity together with decreased EMG tone, and REM sleep by a low ratio of a delta to theta activity and an absence of EMG tone. Sleep efficiency was measured as the percentage of total recorded epochs staged as NREM or REM sleep.
as §3

CB1 receptors = CB1 receptors (Homo sapiens, UniProt P21554); conditions: cited from earlier work
Chain of CB1 receptors (P21554 whole entry): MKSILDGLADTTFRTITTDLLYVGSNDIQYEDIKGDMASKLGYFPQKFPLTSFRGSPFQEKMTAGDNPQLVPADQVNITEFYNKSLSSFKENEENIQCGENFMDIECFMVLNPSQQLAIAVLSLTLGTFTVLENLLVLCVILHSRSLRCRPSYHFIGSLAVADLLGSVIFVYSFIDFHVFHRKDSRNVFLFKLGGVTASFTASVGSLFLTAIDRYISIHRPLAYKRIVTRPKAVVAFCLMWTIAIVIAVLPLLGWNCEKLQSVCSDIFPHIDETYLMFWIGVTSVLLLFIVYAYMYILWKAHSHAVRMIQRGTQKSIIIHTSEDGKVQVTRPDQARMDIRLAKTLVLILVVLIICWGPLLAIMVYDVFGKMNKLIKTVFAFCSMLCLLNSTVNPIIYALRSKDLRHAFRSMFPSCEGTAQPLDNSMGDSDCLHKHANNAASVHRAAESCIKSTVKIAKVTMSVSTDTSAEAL

[5] = 0.1-10.0 mg/kg, sleep/wake states
[6] = intraperitoneal, 0.1 mg/kg, administered alone
[7] = intraperitoneal, 1.0 mg/kg, vs vehicle
[8] = intraperitoneal, 10.0 mg/kg, vs vehicle

Chain of CB2 receptors (P34972 whole entry): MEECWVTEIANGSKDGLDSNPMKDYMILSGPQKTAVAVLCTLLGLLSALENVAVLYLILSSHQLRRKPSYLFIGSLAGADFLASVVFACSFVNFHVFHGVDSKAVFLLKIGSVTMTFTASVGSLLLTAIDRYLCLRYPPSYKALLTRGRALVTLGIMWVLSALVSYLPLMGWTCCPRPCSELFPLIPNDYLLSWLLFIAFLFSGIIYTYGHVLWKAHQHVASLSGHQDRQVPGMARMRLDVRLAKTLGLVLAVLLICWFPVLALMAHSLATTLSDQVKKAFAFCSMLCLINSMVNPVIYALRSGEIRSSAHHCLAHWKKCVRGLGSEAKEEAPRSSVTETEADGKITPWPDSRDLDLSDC

CCCCCCCC/C=C\CCCCCCCC(N)=O [oleamide]
binding affinity to CB2 receptors (CB2 receptors): does not appear to bind with high affinity | sleep/wake architecture (Sprague-Dawley rats [1]; 0.1 mg/kg): increased REM sleep with decreased wakefulness | sleep/wake architecture (Sprague-Dawley rats [1]; 1.0 mg/kg): increased REM sleep with decreased wakefulness | sleep/wake architecture (Sprague-Dawley rats [1]; 10.0 mg/kg): increased NREM sleep with decreased REM sleep | respiratory rate (RR), statistical significance of elevation (Sprague-Dawley rats [2]; 10.0 mg/kg vs. vehicle, p=0.03): achieved statistical significance only during wakefulness | average respiratory rate (RR) (Sprague-Dawley rats [2]; 10.0 mg/kg, 6-hour recording): tended to increase | average respiratory rate (RR) (Sprague-Dawley rats [2]; [5]): dose dependent elevation of RR | respiratory minute ventilation (Sprague-Dawley rats [2]; 0.1-10.0 mg/kg): Equivalent effects | serotonin-induced increase in REM sleep apnea (Sprague-Dawley rats [3]): completely blocked | breaths with long duration in typical 6-hour recordings (FIG. 1A) (Sprague-Dawley rats [4]; 10.0 mg/kg): clear reduction in breaths with durations exceeding 1.5 seconds | apnea expression during REM sleep (Sprague-Dawley rats [4]; [6]): neither Δ^9THC nor oleamide had any effect | frequency of apneas during NREM sleep (Sprague-Dawley rats [4]; intraperitoneal, 0.1 mg/kg, vs vehicle): suppressed apnea expression | apnea expression during REM sleep (Sprague-Dawley rats [4]; [7]): suppressed apnea expression | frequency of apneas during NREM sleep (Sprague-Dawley rats [4]; [7]): suppressed apnea expression | apnea expression during REM sleep (Sprague-Dawley rats [4]; [8]): suppressed apnea expression | frequency of apneas during NREM sleep (Sprague-Dawley rats [4]; [8]): suppressed apnea expression | time dependence of apnea suppression during the 6-hour recording period (Sprague-Dawley rats [4]; intraperitoneal): persisted throughout the 6 hour recording interval | degree of apnea suppression, Δ^9THC compared with oleamide (Sprague-Dawley rats [4]; intraperitoneal): equivalent | binding affinity to CB1 receptors (CB1 receptors): does not appear to bind with high affinity

NCCc1c[nH]c2ccc(O)cc12 [serotonin]
frequency of apnea during REM sleep (Sprague-Dawley rats [3]): significant increase in the frequency of apnea | frequency of apnea during REM sleep (Sprague-Dawley rats [3]; listed as Serotonin): significant increase in REM sleep-apnea

CCCCCc1cc(O)c2c(c1)OC(C)(C)[C@@H]1CCC(C)=C[C@@H]21 [Δ^9THC, 9-tetrahydrocannabinol]
change in REM sleep expression (Sprague-Dawley rats [1]; highest dose tested (10.0 mg/kg), p=0.0002): −66% | average respiratory rate (RR) (Sprague-Dawley rats [2]; 10.0 mg/kg, 6-hour recording): significantly reduced in all sleep/wake states | average respiratory rate (RR) (Sprague-Dawley rats [2]; [5]): dose dependent reduction in RR | respiratory minute ventilation (Sprague-Dawley rats [2]; 0.1-10.0 mg/kg): Equivalent effects | serotonin-induced increase in REM sleep apnea (Sprague-Dawley rats [3]): completely blocked | breaths with long duration in typical 6-hour recordings (FIG. 1A) (Sprague-Dawley rats [4]; 10.0 mg/kg): clear reduction in breaths with durations exceeding 1.5 seconds | apnea expression during REM sleep (Sprague-Dawley rats [4]; [6]): neither Δ^9THC nor oleamide had any effect | frequency of apneas during NREM sleep (Sprague-Dawley rats [4]; [7]): reduced the frequency of apneas | apnea expression during REM sleep (Sprague-Dawley rats [4]; [8]): significant decrease | frequency of apneas during NREM sleep (Sprague-Dawley rats [4]; [8]): reduced the frequency of apneas | spontaneous apnea during all sleep stages (Sprague-Dawley rats [4]; intraperitoneal, 0.1-10.0 mg/kg, 6-hour recording, vs vehicle): strongly suppressed spontaneous apnea | time dependence of apnea suppression during the 6-hour recording period (Sprague-Dawley rats [4]; intraperitoneal): not time-dependent | degree of apnea suppression, Δ^9THC compared with oleamide (Sprague-Dawley rats [4]; intraperitoneal): equivalent
